Read-outs that look alike come from different tables or passages of the source.
System: MYB
Experiment: Splicing RT-qPCR assay, MYB mRNA canonical junction (CJ) and alternative junction (AJ)
Type: cell-based, human
Conditions: for AC50: increase in AJ mRNA
Method in brief: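 A673 or K562 cells were treated 24 h at 37 °C with an 11-point 3-fold dilution series (top 10 uM final, DMSO ≤0.25%). Lysates underwent one-step RT-qPCR for canonical (CJ) and alternative (AJ) junctions; Ct normalized to GAPDH, GUSB or PPIA and DMSO control via 2^(−ΔΔCt), expressed as percentage response.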

[1] = Homo sapiens, 24 h, decrease in CJ mRNA, A673 or K562 cells, 24 hours treatment, RT-qPCR, read-out: MYB CJ IC50
[2] = Homo sapiens, 24 h, A673 or K562 cells, 24 hours treatment, RT-qPCR
[3] = Homo sapiens, RT-qPCR panel, canonical junction mRNA, compound concentration having 50% response in CJ decrease, read-out: MYB IC50 (decrease in CJ mRNA levels)

| Structure (SMILES) | IC50 [1] [nM] | AC50 [2] [nM] | IC50 [3] [nM] | IC50 (RT-qPCR panel, canonical junction mRNA, compound concentration having 50% response in CJ decrease, read-out: MYB IC50 (decrease in CJ mRNA levels)) [nM] | IC50 (decrease in CJ mRNA, A673 or K562 cells, 24 hours treatment, RT-qPCR, read-out: MYB CJ IC50) [nM] |
| --- | --- | --- | --- | --- | --- |
| CN(c1ccc(-c2cc(F)c(-c3cn[nH]c3)c3cn[nH]c23)nn1)[C@@H]1C[C@H]2CC(F)(F)[C@@H](C1)N2 (stereo in doubt) [Compound 378, 6,6-difluoro-N-{6-[5-fluoro-4-(1H-pyrazol-4-yl)-1H-indazol-7-yl]pyridazin-3-yl}-N-methyl-8-azabicyclo[3.2.1]octan-3-amine] | 100 to 1000 | < 100 | 100 to 1000 |  |  |
| CN(c1ccc(-c2ccc(-c3cn[nH]c3)c3ncsc23)nn1)[C@@H]1C[C@H]2CC(F)(F)[C@@H](C1)N2 (stereo in doubt) [Compound 379, 6,6-difluoro-N-methyl-N-{6-[4-(1H-pyrazol-4-yl)-1,3-benzothiazol-7-yl]pyridazin-3-yl}-8-azabicyclo [3.2.1]octan-3-amine] | 100 to 1000 | 100 to 1000 | 100 to 1000 |  |  |
| CN(c1ccc(-c2ccc(-c3cn[nH]c3)c3cn[nH]c23)nn1)[C@@H]1C[C@H]2CC[C@@H](C1)N2 [Compound 104] | 1000 to 10000 | 1000 to 10000 | 1000 to 10000 |  |  |
| CN(c1ccc(-c2ccc(-n3cccn3)c3cn[nH]c23)nn1)[C@@H]1C[C@H]2CC[C@@H](C1)N2 [Compound 105] | < 100 | 100 to 1000 | < 100 |  |  |
| CN(c1ccc(-c2ccc(-c3cn[nH]c3)c3ncsc23)nn1)C1CC(C)(C)NC(C)(C)C1 [Compound 132] | 100 to 1000 | 1000 to 10000 | 100 to 1000 |  |  |
| CN(c1ccc(-c2ccc(-c3cn[nH]c3)c3cn[nH]c23)nn1)C1CC(C)(C)NC(C)(C)C1 [Compound 137] | 1000 to 10000 | 1000 to 10000 | 1000 to 10000 |  |  |
| CN(c1ccc(-c2ccc(-c3ccc(=O)n(C)c3)c3scnc23)nn1)C1CC(C)(C)NC(C)(C)C1 [Compound 178] | 1000 to 10000 | > 10000 | 1000 to 10000 |  |  |
| CC1(C)CC(Oc2ccc(-c3ccc(-c4cn[nH]c4)c4ncsc34)nn2)CCN1 (centres unmarked) [Compound 182] | 1000 to 10000 | > 10000 | 1000 to 10000 |  |  |
| c1nc2c(-c3cn[nH]c3)ccc(-c3ccc(OC4CCNCC4)nn3)c2s1 [Compound 183] | 100 to 1000 | 100 to 1000 | 100 to 1000 |  |  |
| c1nc2c(-c3cn[nH]c3)ccc(-c3ccc(O[C@@H]4C[C@H]5CC[C@@H](C4)N5)nn3)c2s1 [Compound 184] | 100 to 1000 | < 100 | 100 to 1000 |  |  |
| CC1(C)CC(Nc2ccc(-c3ccc(-c4cn[nH]c4)c4ncsc34)nn2)CC(C)(C)N1 [Compound 186] | 100 to 1000 | > 10000 | 100 to 1000 |  |  |
| c1nc2c(-c3cn[nH]c3)ccc(-c3ccc(N[C@@H]4C[C@H]5CC[C@@H](C4)N5)nn3)c2s1 [Compound 202] | 100 to 1000 | 100 to 1000 | 100 to 1000 |  |  |
| CCN(c1ccc(C2=CC=C(c3cn[nH]c3)C3N=CSC23)nn1)[C@@H]1C[C@H]2CC[C@@H](C1)N2 (some centres unmarked) [Compound 203] | 100 to 1000 | 100 to 1000 | 100 to 1000 |  |  |
| CN(c1ccc(-c2ccc(-c3cn[nH]c3)c3ncsc23)nn1)[C@H]1C[C@]2(C)CC[C@](C)(C1)N2 [Compound 204] | < 100 | 100 to 1000 | < 100 |  |  |
| [2H]C([2H])([2H])N(c1ccc(-c2ccc(-c3cn[nH]c3)c3ncsc23)nn1)[C@@H]1C[C@H]2CC[C@@H](C1)N2 [Compound 210] | < 100 | < 100 | < 100 |  |  |
| CN(c1ccc(-c2ccc(-c3cn[nH]c3)c3ncsc23)nn1)[C@@H]1C[C@H]2CC[C@@H](C1)N2 [Compound 213] | 100 to 1000 | 100 to 1000 | 100 to 1000 |  |  |
| c1nc2c(-c3cn[nH]c3)ccc(-c3ccc(N[C@@H]4C[C@H]5CCC[C@@H](C4)N5)nn3)c2s1 [Compound 215] | 100 to 1000 | < 100 | 100 to 1000 |  |  |
| Fc1cc(-c2ccc(O[C@@H]3C[C@H]4CC[C@@H](C3)N4)nn2)c2[nH]ncc2c1-c1cn[nH]c1 [Compound 216] | 100 to 1000 | < 100 | 100 to 1000 |  |  |
| CN(c1ccc(-c2ccc(-c3cn[nH]c3)c3ncsc23)nn1)[C@@H]1C[C@H]2CCC[C@@H](C1)N2 [Compound 226] | < 100 | < 100 | < 100 |  |  |
| [2H]C([2H])([2H])N(c1ccc(-c2ccc(-c3cn[nH]c3)c3ncsc23)nn1)[C@@H]1C[C@H]2CCC[C@@H](C1)N2 [Compound 227] | < 100 | < 100 | < 100 |  |  |

| Structure (SMILES) | IC50 [1] [nM] | AC50 [2] [nM] | IC50 [3] [nM] | IC50 (RT-qPCR panel, canonical junction mRNA, compound concentration having 50% response in CJ decrease, read-out: MYB IC50 (decrease in CJ mRNA levels)) [nM] | IC50 (decrease in CJ mRNA, A673 or K562 cells, 24 hours treatment, RT-qPCR, read-out: MYB CJ IC50) [nM] |
| --- | --- | --- | --- | --- | --- |
| CCN(c1ccc(-c2ccc(-c3cn[nH]c3)c3ncsc23)nn1)[C@@H]1C[C@H]2CCC[C@@H](C1)N2 [Compound 228] | 100 to 1000 | 100 to 1000 | 100 to 1000 |  |  |
| CN(c1ccc(-c2ccc(-c3cnn(C)c3)c3cn[nH]c23)nn1)C1CCNCC1 [Compound 242] | > 10000 | > 10000 | > 10000 |  |  |
| CN(c1ccc(-c2cc(F)c(-c3cnn(C)c3)c3cn[nH]c23)nn1)[C@@H]1C[C@H]2CC[C@@H](C1)N2 [Compound 291] | < 100 | < 100 | < 100 |  |  |
| c1n[nH]cc1-c1ccc(-c2ccc(N[C@@H]3C[C@H]4CCC[C@@H](C3)N4)nn2)c2[nH]ncc12 [Compound 294] | 100 to 1000 | 100 to 1000 | 100 to 1000 |  |  |
| CC1(C)CC(Oc2ccc(-c3cc(F)c(-c4cn[nH]c4)c4cn[nH]c34)nn2)CC(C)(C)N1 [Compound 307] | 100 to 1000 | 1000 to 10000 | 100 to 1000 |  |  |
| c1nc2c(-c3cn[nH]c3)ccc(-c3ccc(N(C4CC4)C4C[C@H]5CCC[C@@H](C4)N5)nn3)c2s1 (some centres unmarked) [Compound 311] | 100 to 1000 | 100 to 1000 | 100 to 1000 |  |  |
| Fc1cc(-c2ccc(O[C@@H]3C[C@H]4CC[C@@H](C3)N4)nn2)c2sncc2c1-c1cn[nH]c1 [Compound 327] | < 100 | < 100 | < 100 |  |  |
| COc1cc(-c2ccc(-c3ccc(N(C)C4CC(C)(C)NC(C)(C)C4)nn3)c3scnc23)cnn1 [Compound 330] | 100 to 1000 | 100 to 1000 | 100 to 1000 |  |  |
| CC(C)(C)NC1CCN(c2ccc(-c3ccc(-c4cn[nH]c4)c4ncsc34)nn2)C1 (centres unmarked) [Compound 336] |  |  |  | 100 to 1000 | 100 to 1000 |
| c1nc2c(-c3cn[nH]c3)ccc(-c3ccc(N4CCC(NC5CC5)C4)nn3)c2s1 (centres unmarked) [Compound 337] | > 10000 | > 10000 | > 10000 |  |  |
| Fc1cc(-c2ccc(N[C@@H]3C[C@H]4CC[C@@H](C3)N4)nn2)c2scnc2c1-c1cn[nH]c1 [Compound 339] | < 100 | < 100 | < 100 |  |  |
| Cc1ncc(-c2ccc(-c3ccc(O[C@@H]4C[C@H]5CC[C@@H](C4)N5)nn3)c3scnc23)s1 [Compound 348, 7-{6-[(exo)-8-azabicyclo[3.2.1]octan-3-yloxy]pyridazin-3-yl}-4-(2-methyl-1,3-thiazol-5-yl)-1,3-benzothiazole] | 100 to 1000 | 100 to 1000 | 100 to 1000 |  |  |
| COc1cc(-c2ccc(-c3ccc(O[C@@H]4C[C@H]5CC[C@@H](C4)N5)nn3)c3scnc23)cnn1 [Compound 362] | 100 to 1000 | < 100 | 100 to 1000 |  |  |
| Fc1ccn(-c2ccc(-c3ccc(O[C@@H]4C[C@H]5CC[C@@H](C4)N5)nn3)c3scnc23)n1 [Compound 363] | 100 to 1000 | 100 to 1000 | 100 to 1000 |  |  |
| CN(c1ncc(-c2ccc(-n3cccn3)c3[nH]ncc23)nn1)[C@@H]1C[C@H]2CCC[C@@H](C1)N2 [Compound 551] |  |  | 100 to 1000 |  |  |
| c1cnn(-c2ccc(-c3cnc(N[C@@H]4C[C@H]5CC[C@@H](C4)N5)nn3)c3cn[nH]c23)c1 [Compound 556] |  |  | 100 to 1000 |  |  |
| c1cnn(-c2ccc(-c3cnc(N[C@@H]4C[C@H]5CCC[C@@H](C4)N5)nn3)c3cn[nH]c23)c1 [Compound 561] |  |  | 100 to 1000 |  |  |
| CC(C)(C)C1CN(c2ncc(-c3ccc(-n4cccn4)c4[nH]ncc34)nn2)CCN1 (centres unmarked) [Compound 572] |  |  | 100 to 1000 |  |  |
| CN(c1ncc(-c2ccc(-n3cncn3)c3[nH]ncc23)nn1)[C@@H]1C[C@H]2CCC[C@@H](C1)N2 [Compound 574] |  |  | 100 to 1000 |  |  |
| CN(c1ncc(-c2ccc(-n3ccnn3)c3[nH]ncc23)nn1)[C@@H]1C[C@H]2CCC[C@@H](C1)N2 [Compound 576] |  |  | 1000 to 10000 |  |  |
